Reference: publication PMC3157396, “Molecular Basis for the Recognition of Adenomatous Polyposis Coli by the Discs Large 1 Protein” (PLoS ONE, 2011)
“Also recorded” adds a separate entry of the source. Each block holds one substance with its values, some of them ahead of it.

Experiments:
[1] = tested on: P245Q mutation in PDZ1 of DLG1; details: cited from earlier work
Description: This residue difference might account for the higher affinity between PDZ2 and APC.

[2] = tested on: PDZ1 and PDZ2 domains of PSD-95; details: cited from earlier work
Description: The 3D structures of the three PDZ domains of DLG1 have been determined in the free forms [13]–[15]. They share very similar structures, and the ligand binding pockets are also conserved. […] The residues in the β2/β3 loop ...

[3] = target: T1, PDZ1 domain of DLG1 (residues 220–310) (Homo sapiens, UniProt Q12959); assay: GST pull-down assay, PDZ1; assay type: binding; details: GST-APC peptide immobilized, 4°C, 25 mM Tris-HCl pH 8.0, 150 mM NaCl, 2 mM DTT, SDS-PAGE, Coomassie Blue
T1 construct: The cDNAs encoding PDZ1 (residues 220–310); His tag (N); made in house; host or cells: E. coli BL21 (DE3)
T1 sequence (Q12959 220-310): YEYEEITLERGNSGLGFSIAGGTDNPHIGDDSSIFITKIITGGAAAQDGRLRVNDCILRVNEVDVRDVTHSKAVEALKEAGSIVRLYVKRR
Description: (§1) The cDNAs encoding PDZ1 (residues 220–310), PDZ2 (residues 315–410), PDZ3 (462–552), and PDZ1-PDZ2 (residues 220–410) domains of human DLG1 were cloned into pET28a (Novagen)-derived vectors and over-expressed as N-terminal His-tagged proteins. The C-terminal 11 residues of human APC (residues 2833–2843, APC-C11, with sequence […]), the C-terminal 4 residues of human APC (residues 2840–2843, APC-C4, sequence VTSV), and residues 2833–2842 of APC (APC-C10, sequence […]) were cloned into the pGEX4T1 (GE Healthcare) vector to be expressed as N-terminal GST-tagged recombinant proteins.
(§2) All proteins except PDZ1-PDZ2 were over-expressed in E. coli strain BL21 (DE3), and PDZ1-PDZ2 was over-expressed in E. coli strain BL21 (RIL). Cells were cultured at 37°C in LB medium and incubated for 20 hours at 18°C with 0.5 mM isopropyl β-D-1-thiogalactopyranoside (IPTG) on reaching OD600 = 0.6. Cells were harvested by centrifugation and resuspended in the binding buffer (Ni^2+-NTA column binding buffer: 25 mM Tris-HCl, pH 8.0, 300 mM NaCl, and 20 mM imidazole; GST column binding buffer: 25 mM Tris-HCl, pH 8.0, 150 mM NaCl, and 2 mM DTT). The cells were lysed by sonication, followed by centrifugation. Supernatants of the cells lysates were purified by Ni^2+-NTA affinity chromatography (Qiagen) or GST affinity chromatography (GE Healthcare). PDZ1, PDZ2, PDZ3, and PDZ1-PDZ2 proteins were then purified by Superdex 200 gel filtration chromatography equilibrated with a buffer containing 20 mM Tris-HCl, pH 8.0, 100 mM NaCl, and 2 mM DTT.
(§3) GST pull-down assays between wild-type (WT) or mutant APC peptides and WT or mutant PDZ domain proteins were performed according to standard procedures. […] The bound proteins were eluted with the GST column elution buffer (50 mM Tris-HCl, pH 8.0, 150 mM NaCl, and 7 mM glutathione), and then analyzed by SDS-PAGE and Coomassie Blue staining.

[4] = target: T2, PDZ2 domain of DLG1 (residues 315–410) (Homo sapiens, UniProt Q12959); assay: GST pull-down assay, PDZ2; assay type: binding; details: for binding in GST pull-down (in words): PDZ2 (WT), GST-APC peptide immobilized, 4°C, 25 mM Tris-HCl pH 8.0, 150 mM NaCl, 2 mM DTT, SDS-PAGE, Coomassie Blue
T2 construct: PDZ2 (residues 315–410); His tag (N); made in house; host or cells: E. coli BL21 (DE3)
T2 sequence (Q12959 315-410): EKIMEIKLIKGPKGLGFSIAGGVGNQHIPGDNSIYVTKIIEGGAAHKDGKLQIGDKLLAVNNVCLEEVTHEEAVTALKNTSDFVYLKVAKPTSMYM
Description: as §1, §2, §3

[5] = target: T1, PDZ1 domain of DLG1 (residues 220–310); assay: ITC, PDZ1 titrated into GST-tagged APC peptides; assay type: binding; details: 25°C, 50 mM HEPES pH 7.5, 100 mM NaCl
Description: as §1, §2
(§4) Isothermal titration calorimetry (ITC) experiments were performed using an ITC200 system (GE Healthcare) at 25°C. The buffer contained 50 mM HEPES, pH 7.5, and 100 mM NaCl. Proteins were centrifuged and degassed before the experiment. Typically, a WT or mutant DLG1 PDZ domain protein (400 µM) was injected 20 times in 2 µl aliquots into a 300 µl sample cell containing GST-tagged APC-C11 or APC-C4 protein (40 µM). Data were fit with a nonlinear least-square routine using a single site binding model with Origin for ITC version 7.0 (MicroCal), varying the stoichiometry (n), the enthalpy of the reaction (ΔH), and the association constant (K a).

[6] = target: T2, PDZ2 domain of DLG1 (residues 315–410); assay: ITC, PDZ2 titrated into GST-tagged APC peptides; assay type: binding; details: 25°C, 50 mM HEPES pH 7.5, 100 mM NaCl
Description: as §1, §2, §4

PDZ3 domain of DLG1 = target: T3, PDZ3 domain of DLG1 (Homo sapiens, UniProt Q12959); assay: ITC, PDZ3 titrated into GST-APC-C11; assay type: binding; details: 25°C, 50 mM HEPES pH 7.5, 100 mM NaCl
T3 construct: PDZ3 (462–552); His tag (N); made in house; host or cells: E. coli BL21 (DE3)
T3 sequence (Q12959 462-552): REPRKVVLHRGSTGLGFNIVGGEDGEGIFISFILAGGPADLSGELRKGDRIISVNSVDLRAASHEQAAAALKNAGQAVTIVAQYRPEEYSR
Description: as §1
as §2, with “PDZ1, PDZ2, PDZ3, and PDZ1-PDZ2 proteins were then purified by Superdex 200 gel filtration chromatography equilibrated with a buffer containing 20 mM Tris-HCl, pH 8.0, 100 mM NaCl, and 2 mM DTT.” left out

PDZ2 Δ339–346 (DLG1) [7] = target: T4, PDZ2 Δ339–346 (DLG1) (Homo sapiens, UniProt Q12959, DEL339-346); assay: ITC, PDZ2 Δ339–346 titrated into GST-APC-C11; assay type: binding; details: 25°C, 50 mM HEPES pH 7.5, 100 mM NaCl
T4 construct: PDZ2 (residues 315–410); His tag (N); made in house; host or cells: E. coli BL21 (DE3)
T4 sequence (Q12959 with tags, fused parts or gaps DEL339-346): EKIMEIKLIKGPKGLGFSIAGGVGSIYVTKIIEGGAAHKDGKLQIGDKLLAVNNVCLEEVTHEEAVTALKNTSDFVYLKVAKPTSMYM
Description: (§5) The 3D structures of the three PDZ domains of DLG1 have been determined in the free forms [13]–[15]. They share very similar structures, and the ligand binding pockets are also conserved. […] The residues in the β2/β3 loops of PDZ domains in other proteins have also been implicated in determining their target ligand binding affinities, [18]. In order to know whether the β2/β3 loop also plays an important role in the interaction between APC and DLG1, we created a similar mutant of PDZ2 deleting residues 339–346.
as §1
Isothermal titration calorimetry (ITC) experiments were performed using an ITC200 system (GE Healthcare) at 25°C. The buffer contained 50 mM HEPES, pH 7.5, and 100 mM NaCl. Proteins were centrifuged and degassed before the experiment. […]

PDZ2 Q340P (DLG1) [8] = target: T5, PDZ2 Q340P (DLG1) (Homo sapiens, UniProt Q12959, Q340P); assay: ITC, PDZ2 Q340P titrated into GST-APC-C11; assay type: binding; details: 25°C, 50 mM HEPES pH 7.5, 100 mM NaCl
T5 construct: PDZ2 (residues 315–410); His tag (N); made in house; host or cells: E. coli BL21 (DE3)
T5 sequence (Q12959 315-410 Q340P): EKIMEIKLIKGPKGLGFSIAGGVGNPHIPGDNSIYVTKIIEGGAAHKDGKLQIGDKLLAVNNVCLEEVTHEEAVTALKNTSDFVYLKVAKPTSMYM
Description: as §1, §4

[9] = tested on: PDZ1-PDZ2 of DLG1 (residues 220–410); assay: GST pull-down assay, PDZ1-PDZ2; assay type: binding, human; details: GST-APC peptide immobilized, 4°C, 25 mM Tris-HCl pH 8.0, 150 mM NaCl, 2 mM DTT, SDS-PAGE, Coomassie Blue
Description: as §1
All proteins except PDZ1-PDZ2 were over-expressed in E. coli strain BL21 (DE3), and PDZ1-PDZ2 was over-expressed in E. coli strain BL21 (RIL). Cells were cultured at 37°C in LB medium and incubated for 20 hours at 18°C with 0.5 mM isopropyl β-D-1-thiogalactopyranoside (IPTG) on reaching OD600 = 0.6. […]
as §3

PDZ2 Δ339–346 (DLG1) [10] = target: T4, PDZ2 Δ339–346 (DLG1); assay: GST pull-down assay, PDZ2 Δ339–346; assay type: binding; details: PDZ2 Δ339–346 vs WT PDZ2; GST-APC-C11 immobilized, 4°C; 25 mM Tris-HCl pH 8.0, 150 mM NaCl, 2 mM DTT
Description: as §5, §1
GST pull-down assays between wild-type (WT) or mutant APC peptides and WT or mutant PDZ domain proteins were performed according to standard procedures. […]

PDZ2 Q340P (DLG1) [11] = target: T5, PDZ2 Q340P (DLG1); assay: GST pull-down assay, PDZ2 Q340P; assay type: binding; details: PDZ2 Q340P vs WT PDZ2; GST-APC-C11 immobilized, 4°C; 25 mM Tris-HCl pH 8.0, 150 mM NaCl, 2 mM DTT
Description: as §1, §3

Substance: NR2B: NR2B subunit of NMDA receptors
fold increase in binding affinity for NR2B [1]: 2 fold | change of binding affinity on deletion of six residues from the β2/β3 loops (in words) [2]: decreases the binding affinity

binding in GST pull-down (in words) [3]: no interaction could be observed | binding in GST pull-down (in words) [4]: no interaction could be observed
Substance: RHSGSYLVTS [APC-C10]

DLG/APC ratio ([5]; 400 µM PDZ1 into 40 µM GST-tagged APC peptide, single site binding model): 0.918±0.127 | TΔS ([5]; PDZ1 into GST-tagged APC peptide): 2.44 kcal/mol | ΔH ([5]; PDZ1 into GST-tagged APC peptide, negative = exothermic): -4.02 ± 0.82 kcal/mol | DLG/APC ratio ([6]; 400 µM PDZ2 into 40 µM GST-tagged APC peptide, single site binding model): 0.916±0.018 | TΔS ([6]; PDZ2 into GST-tagged APC peptide): 1.07 kcal/mol | ΔH ([6]; PDZ2 into GST-tagged APC peptide, negative = exothermic): -7.09 ± 0.19 kcal/mol | interaction / heat of reaction by ITC (in words) (PDZ3 domain of DLG1): no detectable interaction was observed | interaction / heat of reaction by ITC (in words) (PDZ2 Δ339–346 (DLG1) [7]): no detectable heat of reaction | interaction / heat of reaction by ITC (in words) (PDZ2 Δ339–346 (DLG1) [7]; listed as GST-APC-C11): no detectable interaction was observed | DLG/APC ratio (PDZ2 Q340P (DLG1) [8]; 400 µM PDZ2 Q340P into 40 µM GST-APC-C11, single site binding model): 1.04±0.03 | TΔS (PDZ2 Q340P (DLG1) [8]; PDZ2 Q340P into GST-APC-C11): 0.0793 kcal/mol | ΔH (PDZ2 Q340P (DLG1) [8]; PDZ2 Q340P into GST-APC-C11, negative = exothermic): -6.76 ± 0.27 kcal/mol | binding in GST pull-down (in words) [3]: somewhat weaker, but detectable binding | binding in GST pull-down (in words) ([4]; listed as GST-APC-C11): bound most strongly | binding in GST pull-down (in words) [9]: bound most strongly
Substance: RHSGSYLVTSV [APC-C11]
binding in GST pull-down (in words) [4]: stronger than that between PDZ1 and APC-C11 | binding in GST pull-down in crystallization-like buffer (in words) ([4]; PDZ2, buffer similar to the condition in which PDZ2/APC-C11 crystallized, data not shown): weaker than that between PDZ1 and APC-C11 | binding in GST pull-down (in words) (PDZ2 Δ339–346 (DLG1) [10]): significantly decreases the interaction; also recorded: dramatically decreased the interaction | binding in GST pull-down (in words) (PDZ2 Q340P (DLG1) [11]): greatly diminished the association; also recorded: substantially weaker interaction

Substance: VTSV [APC-C4]
interaction / heat of reaction by ITC (in words) ([5]; PDZ1, listed as GST-APC-C4): no detectable heat of reaction; also recorded: no detectable interaction was observed | interaction / heat of reaction by ITC (in words) ([6]; PDZ2, listed as GST-APC-C4): no detectable heat of reaction; also recorded: no detectable interaction was observed | binding in GST pull-down (in words) [3]: significantly weaker compared to GST-APC-C11 | binding in GST pull-down (in words) [4]: significantly weaker compared to GST-APC-C11 | binding in GST pull-down (in words) [9]: significantly weaker compared to GST-APC-C11
